Assays:
[1] = aqueous solubility of gallium as a function of pH; type: physicochemical
Excerpt: Gallium is a semi-metallic element in group 13 (IIIa) of the periodic table. Gallium is trivalent in aqueous solution (Ga^3+). The free hydrated ion Ga^3+hydrolyzes nearly completely at pH values close to neutral, readily forming highly insoluble amorphous Ga(OH)3. In addition to precipitating as hydroxides and oxyhydroxides , Ga will also form highly insoluble phosphates at pH values close to neutral. L R Bernstein (1998) provides a brief review of the solution chemistry of gallium. […] At low and high pH values, gallium has many orders of magnitude greater solubility. […] This difference in solubility can be exploited in an inhalation product by formulating gallium or its salts (e.g., gallium nitrate) at a very low or very high pH.

[2] = calculated gallium concentration and precipitation in lung fluid after one AERx strip; parameters: species or system human
Excerpt: Thus, one would expect that there would be a depot-like effect in the lung in terms of the release of gallium from the solid state over time. This would result in a delayed absorption profile of gallium into the bloodstream, with a reduced CMAX and delayed TMAX. This would also reduce or eliminate side effects resulting from high systemic concentrations.

[3] = pH 7.4 and 25° C.; cited from earlier work
[4] = cited from earlier work
[5] = in lung fluid at ~pH 7.4, assumed deposition

| times greater solubility than at pH 7.4 ([1]; pH 2 versus pH 7.4) | times greater solubility than at pH 7.4 ([1]; pH 10 versus pH 7.4) [times] | resulting gallium concentration in lung fluid ([2]; assumed: 25 μL of pH 2 solution equilibrated to ~pH 7.4 in 20 mL lung fluid) [µM] | excess of concentration over equilibrium solubility at pH 7.4 ([2]; assumed: 25 μL of pH 2 solution in 20 mL lung fluid) [fold] | gallium likely to precipitate out of solution [2, 5] [%] | gallium remaining soluble [2, 5] [%] | SMILES | total aqueous solubility of gallium [3] [µM] | solubility in water [4] |
| --- | --- | --- | --- | --- | --- | --- | --- | --- |
| ~10,000 times | ~500 | ~12.5 | ~12.5 | 96 | 8 | [Ga] [gallium] | ~1 |  |
|  |  |  |  |  |  | NC[C@H]1O[C@H](O[C@H]2[C@H](O)[C@@H](O[C@H]3O[C@H](CO)[C@@H](O)[C@H](N)[C@H]3O)[C@H](N)C[C@@H]2N)[C@H](N)C[C@@H]1O [tobramycin] |  | very soluble in water |

— patent US20200297722A1, “pH-Modulated Formulations for Pulmonary Delivery” (GRIFOLS, S.A., priority 2009, published 2020)
